# Results reported in article PMC9853869, “The Myxobacterial Antibiotic Myxovalargin: Biosynthesis, Structural Revision, Total Synthesis, and Molecular Characterization of Ribosomal Inhibition” (Journal of the American Chemical Society, 2023).
# Like-named read-outs stand apart in the source and are kept apart here. *1 amine or outer side, *2 acyl side, *3 side chain or, on linkers, in order; H or OH if unused. Where a SMILES comes first, the peptide text is derived from it. [ ]: non-standard residue; d: D form. The star is where a group is joined. X1 = O=C(C[C@H](N[*:1])c1ccc(O)cc1)[*:2]; dVal(3-OH) = CC(C)(O)[C@@H](N)C(=O)O; X2 = CCC(C)=C(N[*:1])C(=O)[*:2]; ΔIle(E) = CC/C(C)=C(/N)C(=O)O; Isovaleryl = CC(C)CC(=O)*; Agmatine = N=C(N)NCCCCN*; Isobutyryl = CC(C)C(=O)*; NMeA = CN[C@@H](C)C(=O)O; ΔVal = CC(C)=C(N)C(=O)O
# Key:
# [1] = tested on: Pseudomonas aeruginosa PA14; conditions: PA14, 24 h
# [2] = tested on: Escherichia coli DSM-1116; conditions: DSM-1116, 24 h
# [3] = tested on: Enterococcus faecium DSM-20477; conditions: DSM-20477, 24 h
# [4] = tested on: Mycobacterium smegmatis mc2155; conditions: mc2155, 48 h
# [5] = tested on: Staphylococcus aureus DSM-346; conditions: DSM-346, 24 h
# [6] = tested on: Micrococcus luteus DSM-1790; conditions: DSM-1790, 24 h
# [7] = tested on: Pseudomonas aeruginosa PAO1; conditions: PAO1, 24 h
# [8] = tested on: Chromobacterium violaceum DSM-30191; conditions: DSM-30191, 24 h
# [9] = tested on: Escherichia coli K12 ΔtolC; conditions: K12, 24 h
# [10] = tested on: intracellular M. tuberculosis H37Rv; assay: Intracellular activity ex vivo in THP-1-derived macrophages; type: cell-based, Mycobacterium tuberculosis
# [11] = tested on: Staphylococcus aureus; conditions: 4 h
# [12] = tested on: Histophilus somni
# [13] = tested on: Pasteurella multocida
# [14] = tested on: M. tuberculosis H37Rv; assay: Time-kill kinetics in vitro; type: cell-based, Mycobacterium tuberculosis; conditions: independent triplicates
# [15] = tested on: M. tuberculosis; conditions: for toxicity in infected mice: mouse, in vivo
# [16] = tested on: HepG2 cells; conditions: HepG2, 24 h, alamarBlue, 0.005 - 99.0 μM, mean of 4 replicates
# [17] = tested on: Pasteurella multocida; remark: listed apart in the source
# [18] = tested on: Mannheimia haemolytica
# [19] = in vivo; conditions: BALB/c, mouse
# [20] = tested on: M. tuberculosis H37Rv
# [21] = tested on: Streptococcus uberis; conditions: 4 h
# [22] = tested on: wildtype E. coli ribosomes; type: biochemical; conditions: purified wildtype 70S ribosomes, increasing concentrations
# [23] = tested on: ribosome; assay: Toeprinting assay on ErmBL mRNA; type: biochemical, E. coli; conditions: 10–100 μM, absence of isoleucine
# Method: To address the mechanism of action of myxovalargins, we employed the toeprinting assay, which uses reverse transcription to monitor the position of ribosomes on a mRNA (Figure 6a).[24] The assay was performed in the absence of isoleucine (Ile) such that in the absence of antibiotics, ribosomes can initiate at the AUG start codon but become stuck after translating 15 amino acids when the Ile “catch-codon” enters the A-site (Figure 6a,b). […] We also performed toeprinting reactions in the presence of 5 μM erythromycin (Ery), which allows ribosomes to translate the first 10 amino acids of the ErmBL mRNA but then stalls them with GAU (Asp) codon in the P-site (Figure 6a,b), as reported previously.[25]−[27] After pre-incubation with Ery, we titrated reactions with increasing MyxB, which also led to a loss of the Ery-dependent ErmBL stalling band and appearance of ribosomes positioned on the start codon (Figure 6b), consistent with the overlap in ribosomal binding sites of MyxB and Ery (Figure 6c,d). […] Indeed, in the MyxB-SRC, we observed the simultaneous presence of P-site tRNA and MyxB (Figure 5d) but no ribosomes with additional presence of A-site tRNA (Figure S7-5). […]
# [24] = tested on: E. coli ribosomes bearing the A2503G mutation; type: biochemical
# [25] = tested on: 23S rRNA of the large ribosomal subunit; type: binding, E. coli; conditions: 10 μM or 100 μM
# [26] = tested on: eukaryotic translation; conditions: cited from earlier work
# Source text: Microorganisms continue to be a major source for innovative antibiotics. Ubiquitously found but understudied soil-dwelling predatory myxobacteria have proven to be a rich source of bioactive compounds.[3]−[5] […] The myxovalargin structure was described in 1987 as comprising some congeners with Myxovalargin A (MyxA) ...
compound,measurement,setting,value
CC(C)=C(NC(=O)C(C)C)C(=O)N[C@@H](C)C(=O)N(C)[C@@H](C)C(=O)N[C@@H](C(=O)N[C@@H](C(=O)N[C@@H](CC(=O)N[C@@H](C(=O)NC(C(=O)N[C@H](CCCNC(=N)N)C(=O)N[C@H](C(=O)N[C@@H](C(=O)NC(C(=O)N[C@H](C)C(=O)N[C@@H](C(=O)NCCCCNC(=N)N)C(C)(C)O)=C(C)C)C(C)C)C(C)C)=C(C)C)C(C)C)c1ccc(O)cc1)C(C)C)C(C)C [Myx C] (Isobutyryl-[ΔVal]A[NMeA][dV][dV][X1][dV][ΔVal][dR]V[dV][ΔVal][dA][dVal(3-OH)]-Agmatine),MIC,[1],32 µg/mL
same,MIC,[2],64 µg/mL
same,MIC,[3],1 µg/mL
same,MIC,[4],4 µg/mL
same,MIC,[5],2 µg/mL
same,MIC,[6],2 µg/mL
same,MIC,[7],64 µg/mL
same,MIC,[8],8 µg/mL
same,MIC,[9],32 µg/mL
"CC/C(C)=C(/NC(=O)[C@H](NC(=O)[C@@H](NC(=O)[C@@H](CCCNC(=N)N)NC(=O)C(NC(=O)[C@H](NC(=O)C[C@H](NC(=O)[C@H](NC(=O)[C@H](NC(=O)[C@H](C)N(C)C(=O)[C@H](C)NC(=O)C(NC(=O)CC(C)C)=C(C)C)C(C)C)C(C)C)c1ccc(O)cc1)C(C)C)=C(C)C)C(C)C)C(C)C)C(=O)N[C@H](C)C(=O)N[C@@H](C(=O)NCCCCNC(=N)N)C(C)(C)O [MyxA, Myxovalargin A] (Isovaleryl-[ΔVal]A[NMeA][dV][dV][X1][dV][ΔVal][dR]V[dV][ΔIle(E)][dA][dVal(3-OH)]-Agmatine)",mode of action ex vivo (intracellular),[10],bacteriostatic activity
same,MIC,[1],16 µg/mL
same,MIC,[11],1 to 2 µg/mL
same,MIC + milk,[11],> 64 µg/mL
same,MIC,[2],32 µg/mL
same,MIC,[3],0.5 µg/mL
same,MIC50,[12]; 4 h,4 µg/mL
same,MIC range,[12]; 4 h,2 to 8 µg/mL
same,MIC90,"[12]; bovine isolates, n = 20",8 µg/mL
same,MIC50,[13]; 4 h,16 µg/mL
same,MIC + serum,[13]; 4 h,10 µg/mL
same,MIC90,"[13]; bovine isolates, n = 25",16 µg/mL
same,MIC,[4],4 µg/mL
same,mode of killing in vitro,[14],dose-dependent bactericidal activity
same,effect on bacterial burden in lung and spleen,"[15]; 2 mg/kg i.p. daily, study terminated after 1 week",no significant effect on bacterial burden
same,toxicity in infected mice,[15],moribund after 1 week
same,MIC,[5],2 µg/mL
same,median cytotoxic dose CTD50,[16],> 99 µM
same,MIC,[6],1 µg/mL
same,Survival rate 48 hpi,"[17]; 10 mg/kg MyxA, i.p., single dose 1 h post-infection, groups of 6",83%
same,Mean bacteria in liver,"[17]; 10 mg/kg MyxA, i.p., n=1",8.5 x 10^7 CFU/g
same,Mean bacteria in liver,"[17]; 10 mg/kg MyxA, i.p., n=5",0 CFU/g
same,bacteriological cure (animals),[17]; 10 mg/kg i.p.,five out of six
same,Mean bacteria in liver,"[17]; 50 mg/kg MyxA, s.c.",1.8 x 10^6 CFU/g
same,Survival rate 48 hpi,"[17]; 50 mg/kg MyxA, s.c., single dose 1 h post-infection",0%
same,tolerability (clinical scoring),"[17]; single 10 mg/kg i.p. dose, P. multocida sepsis model",well tolerated
same,MIC50,[18]; 4 h,16 µg/mL
same,MIC + serum,[18]; 4 h,20 µg/mL
same,MIC90,"[18]; bovine isolates, n = 55",16 µg/mL
same,tolerability,"0.5 mg/kg/day i.p., seven consecutive doses",well tolerated
same,tolerability,"5 mg/kg/day i.p., on day 2",severe adverse effects
same,half-life (in words),"mice, i.p. 0.5, 2 and 5 mg/kg, blood, LC-MS",long half-life
same,level at 0.5 h,"[19]; ip, 10 mg/kg",1830 ng/mL
same,level at 2 h,"[19]; ip, 10 mg/kg",1550 ng/mL
same,level at 0.5 h,"[19]; sc, 50 mg/kg",5260 ng/mL
same,level at 2 h,"[19]; sc, 50 mg/kg",2280 ng/mL
same,MIC,[20],0.2 µg/mL
same,MIC,[21],0.25 to 2 µg/mL
same,MIC + milk,[21],> 64 µg/mL
same,MIC,[7],32 µg/mL
same,MIC,[8],8 µg/mL
same,MIC,[9],16 µg/mL
CCC(C)=C(NC(=O)[C@H](NC(=O)[C@@H](NC(=O)[C@@H](CCCNC(=N)N)NC(=O)C(NC(=O)[C@H](NC(=O)C[C@H](NC(=O)[C@H](NC(=O)[C@H](NC(=O)[C@H](C)N(C)C(=O)[C@H](C)NC(=O)C(NC(=O)C(C)C)=C(C)C)C(C)C)C(C)C)c1ccc(O)cc1)C(C)C)=C(C)C)C(C)C)C(C)C)C(=O)N[C@H](C)C(=O)N[C@@H](C(=O)NCCCCNC(=N)N)C(C)(C)O [MyxB] (Isobutyryl-[ΔVal]A[NMeA][dV][dV][X1][dV][ΔVal][dR]V[dV][X2][dA][dVal(3-OH)]-Agmatine),MIC,[1],32 µg/mL
same,MIC,[2],64 µg/mL
same,MIC,[3],1 µg/mL
same,MIC,[4],8 µg/mL
same,in vitro translation of firefly luciferase reporter,[22],inhibited by MyxB in a dose-dependent fashion
same,MIC,[5],8 µg/mL
same,MIC,[6],2 µg/mL
same,position of arrested ribosomes (toeprint),[23],ribosomes positioned with the AUG start codon in the P-site
same,in vitro translation of firefly luciferase reporter,[24],completely resistant
same,protection from dimethyl sulfate modification,[25],protects multiple 23S rRNA nucleotides
same,MIC,[7],64 µg/mL
same,MIC,[8],32 µg/mL
same,MIC,[9],32 µg/mL
"CCN1CCN(c2cc3c(cc2F)c(=O)c(C(=O)O)cn3C2CC2)CC1 [enrofloxacin, reference compound]",Mean bacteria in liver,"[17]; 10 mg/kg enrofloxacin, s.c.",0 CFU/g
same,Survival rate 48 hpi,"[17]; 10 mg/kg enrofloxacin, s.c.",100%
CCC(C)=C(NC(=O)[C@H](NC(=O)[C@@H](NC(=O)[C@@H](CCCNC(=N)N)NC(=O)C(NC(=O)[C@H](NC(=O)C[C@H](NC(=O)[C@H](NC(=O)[C@H](NC(=O)[C@H](C)N(C)C(=O)[C@H](C)NC(=O)C(NC(=O)CC(C)C)=C(C)C)C(C)C)C(C)C)c1ccc(O)cc1)C(C)C)=C(C)C)C(C)C)C(C)C)C(=O)N[C@H](C)C(=O)N[C@@H](C(=O)NCCCCNC(=N)N)C(C)(C)O [Myxovalargin] (Isovaleryl-[ΔVal]A[NMeA][dV][dV][X1][dV][ΔVal][dR]V[dV][X2][dA][dVal(3-OH)]-Agmatine),toxicity in infected mice,[15],moribund within 1 week
same,inhibition of eukaryotic translation,[26],did not inhibit eukaryotic translation
same,MIC (antitubercular activity),[20],0.2 µg/mL
